For orientation: Kd means the free concentration of one partner at which half of the binding sites on the other are occupied at equilibrium, for simple one-to-one binding.

The text below walks through data of paper PMC4793301, “From chlorite dismutase towards HemQ–the role of the proximal H-bonding network in haeme binding” (Bioscience Reports, 2016).

One assay addresses NdCld wild-type. Briefly: Titration of SCN− and F− to NdCld wild-type, UV–vis, dissociation constant. The settings on record: pH 5.5, 25°C. The assay is classed as binding, Candidatus Nitrospira defluvii. The procedure:
SCN^− and F^− were titrated to NdCld wild-type for the determination of the dissociation constant (KD). The UV–visible electronic absorption spectrum of wild-type NdCld is altered upon binding of SCN^− or F^− if the respective ligand acts as a sixth ligand to haeme b. Binding of F^− was monitored by the change in absorbance at 612 nm [charge transfer band (CT1)] and binding of SCN^− was followed at 411 nm (Soret band). The measurements were performed using a Zeiss Specord S10 DiodeArray spectrophotometer equipped using a quartz cuvette with a path length of 10 mm under constant stirring at 25°C. Samples of 2 μM concentration in 50 mM MES buffer, pH 5.5, were used. Final ligand concentrations were 120 mM (F^−) and 50 mM (SCN^−).

Assay [1] has as its target T1, NdCld (chlorite dismutase from 'Candidatus Nitrospira defluvii') (Nitrospira defluvii, UniProt B3U4H7).
T1 sequence (B3U4H7 27-264): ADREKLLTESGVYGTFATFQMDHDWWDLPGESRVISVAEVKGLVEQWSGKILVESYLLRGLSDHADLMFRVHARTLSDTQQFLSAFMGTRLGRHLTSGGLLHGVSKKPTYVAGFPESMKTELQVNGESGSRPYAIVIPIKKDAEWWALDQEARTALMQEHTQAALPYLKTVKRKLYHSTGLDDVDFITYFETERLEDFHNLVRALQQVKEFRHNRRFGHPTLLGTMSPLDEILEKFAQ
Briefly: UV-vis titration, Soret band […] nm. The assay is classed as binding. More on the design: gene cld; TEV-cleavable N-terminal Strep-II tag, modified pET-21b(+), E. coli Tuner (DE3) with hemin added; haeme b pentamer.

Assay [2] concerns the target T1, NdCld (chlorite dismutase from 'Candidatus Nitrospira defluvii'). In words: DSC, absolute Tm with ligand. The assay is classed as binding. More on the design: gene cld; TEV-cleavable N-terminal Strep-II tag, modified pET-21b(+), E. coli Tuner (DE3) with hemin added; haeme b pentamer. Particulars: 50 mM MES pH 5.5. (In general: Differential scanning calorimetry records heat flow against a reference as temperature is scanned.)

The target of a further assay is BsHemQ. More on the design: method as in PMID 20543190. The settings on record: read-out: KD of haeme binding; cited from earlier work.
The next assay has as its target SaHemQ. More on the design: method as in PMID 23737523. Particulars: read-out: KD of haeme binding; cited from earlier work.
The target of another assay is LmHemQ. More on the design: method as in PMID 25602700. The settings on record: read-out: KD of haeme binding; cited from earlier work.
Assay [3] has as its system NdCld (chlorite dismutase), substrate chlorite. In words: Chlorite degradation, O2 release with Clark-type electrode (steady state). The format is biochemical, Candidatus Nitrospira defluvii. The settings on record: 200 mM fluoride, 175 μM chlorite, pH 5.5.
Description: Cld-mediated chlorite reduction and concomitant oxygen generation was monitored by measuring the release of O2 using a Clark-type electrode (Oxygraph Plus; Hansatech Instruments). The electrode was inserted into a stirred water bath maintained at 30°C. The electrode was equilibrated to 100% O2 saturation by flushing with O2, further 0% saturation was achieved by bubbling with N2 until a plateau was reached. Reactions were carried out in O2-free 50 mM MES buffer, pH 5.5. […] A high excess of ligands (200 mM F^−, 10 mM SCN^−) was present in the respective measurements. […] Molecular oxygen production rates (μM O2 s^−1) were obtained from the initial linear time traces (initial velocities, v0) for direct comparison.
The target of assay [4] is T1, NdCld (chlorite dismutase from 'Candidatus Nitrospira defluvii'). More on the design: gene cld. The settings on record: 200 mM fluoride, 175 μM chlorite, 50 nM enzyme, 50 mM MES pH 5.5, 30 °C.
Assay [5] shares this target. Briefly: biochemical. More on the design: gene cld.

For the compound `N#CS` [SCN^−, thiocyanate], the dissociation constant Kd (on NdCld wild-type (SCN− to wild-type protein); in assay [1]) was 150 ± 40 µM throughout. Further, in assay [2] (10 mM thiocyanate, main peak), the Tm amounted to 94 °C.
As for `C=CC1=C(C)c2cc3[n-]c(cc4[n-]c(cc5nc(cc1n2)C(C)=C5C=C)c(C)c4CCC(=O)O)c(CCC(=O)O)c3C.[Fe+2]` [haeme, haeme b], the dissociation constant Kd at BsHemQ was 30 to 40 µM; on SaHemQ, 1 µM; on LmHemQ it was 7 to 16 µM.
As to `F` [F^−, fluoride], the Kd (on NdCld wild-type (F− to wild-type protein); in assay [5]) was 5900 ± 400 µM throughout. Further, in [3], the “v0 of wild-type NdCld remaining relative to ligand free” value is on record as 53%. This compound also yielded a v0 remaining in assay [4] of 53%. The Tm in [2] (200 mM fluoride) turned out to be 102 °C.
